{"source": "patent US11155550B2", "about": "“Histone deacetylase inhibitors and methods of use thereof” (Reaction Biology Corp., priority 2018, dated 2021)", "key": {"Human HDAC9": {"molecular_target": "T1, Human HDAC9 (Homo sapiens, UniProt Q9UKV0)", "T1 construct": "amino acids 604-1066 with a C-terminal His tag; His tag (C); made in house; host or cells: baculovirus expression system", "T1 sequence (Q9UKV0 604-1066 isoform Q9UKV0-5)": "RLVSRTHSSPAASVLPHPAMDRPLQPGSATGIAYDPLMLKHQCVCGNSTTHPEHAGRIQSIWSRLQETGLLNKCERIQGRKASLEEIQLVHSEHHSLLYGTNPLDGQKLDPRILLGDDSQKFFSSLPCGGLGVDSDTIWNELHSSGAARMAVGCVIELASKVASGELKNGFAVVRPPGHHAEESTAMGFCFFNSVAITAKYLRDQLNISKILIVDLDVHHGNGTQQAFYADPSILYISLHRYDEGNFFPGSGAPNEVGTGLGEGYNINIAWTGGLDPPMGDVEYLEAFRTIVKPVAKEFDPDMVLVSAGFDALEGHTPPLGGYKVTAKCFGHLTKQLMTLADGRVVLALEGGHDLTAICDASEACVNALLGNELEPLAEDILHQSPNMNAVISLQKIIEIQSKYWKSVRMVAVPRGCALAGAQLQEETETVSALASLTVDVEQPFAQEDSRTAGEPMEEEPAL", "test": "Biochemical HDAC enzymatic assay, HDAC9", "details": "Table 2; incubation time 10 min", "experimental": "(§1) Incubation time for HDAC1/2 is 120 min, and 10 min for other HDACs.\nHuman HDAC9 (GenBank Accession No. NM_178423), amino acids 604-1066 with a C-terminal His tag, MW=50.7 kDa, was expressed in a baculovirus expression system.\n(§2) • I. Compound handling: Testing compounds were dissolved in 100% DMSO to a specific concentration. The serial dilution was conducted by epMotion 5070 in DMSO. • II. HDAC reaction buffer: 50 mM Tris-HCl, pH8.0, 137 mM NaCl, 2.7 mM KCl, and 1 mM MgCl2, Added fresh: 1 mg/ml BSA, 1% DMSO. • III. […] Delivered 2× Substrate Mixture (Fluorogenic HDAC Substrate and co-factor ([…] of Nicotinamide adenine dinucleotide (NAD^+) in all Sirt assay) in all reaction wells to initiate the reaction. Spin and shake. • d. Incubated for 1-2 hr. at 30° C. with seal. • e. Added Developer with Trichostatin A (or TMP269 or NAD^+) to stop the reaction and to generate fluorescent color. • f. Fluorescence was read (excitatory, 360; emission, 460) using the EnVision Multilabel Plate Reader (Perkin Elmer) • g. Endpoint reading was taken for analysis after the development reaches plateau. • V. Data Analysis: The percentages of enzyme activity (relative to DMSO controls) and IC50 values were calculated using the GraphPad Prism 4 program based on a sigmoidal dose-response equation. […]"}, "Human HDAC7": {"molecular_target": "T2, Human HDAC7 (Homo sapiens, UniProt Q8WUI4)", "T2 construct": "(a.a. 518-end) with an N-terminal GST tag; GST tag (N); made in house; host or cells: baculovirus expression system", "T2 sequence (Q8WUI4 479-952 limits assumed)": "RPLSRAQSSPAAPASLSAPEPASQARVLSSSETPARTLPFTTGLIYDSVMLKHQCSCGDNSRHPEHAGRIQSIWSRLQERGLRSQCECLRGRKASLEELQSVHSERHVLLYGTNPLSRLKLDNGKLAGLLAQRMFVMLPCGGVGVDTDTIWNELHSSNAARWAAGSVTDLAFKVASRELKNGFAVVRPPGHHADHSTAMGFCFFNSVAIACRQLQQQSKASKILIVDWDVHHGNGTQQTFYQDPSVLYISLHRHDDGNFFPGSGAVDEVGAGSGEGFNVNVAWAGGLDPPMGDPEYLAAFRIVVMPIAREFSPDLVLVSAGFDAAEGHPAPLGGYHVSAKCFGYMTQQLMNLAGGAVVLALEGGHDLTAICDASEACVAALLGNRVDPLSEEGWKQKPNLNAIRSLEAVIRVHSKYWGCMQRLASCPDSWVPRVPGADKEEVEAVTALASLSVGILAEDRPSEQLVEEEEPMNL", "test": "Biochemical HDAC enzymatic assay, HDAC7", "details": "Table 2; incubation time 10 min", "experimental": "as §1\nHuman HDAC7 (GenBank Accession No. AY302468), (a.a. 518-end) with an N-terminal GST tag, MW=78 kDa, was expressed in a baculovirus expression system.\nas §2"}, "[1]": {"test": "Mouse plasma PK after oral administration", "assay_type": "in vivo", "experimental": "(§3) In vivo PK (pharmacokinetics) studies were run at Scripps Florida DMPK Core facility. Mouse plasma PK data was obtained using Compound Example 4 (N-(2-amino-5-(thiophen-2-yl)phenyl)-6-(8-methyl-2-oxo-1-oxa-3,8-diazaspiro[4.5]decan-3-yl)nicotinamide)\n(§4) Dose: 1 mg/kg intravenous (IV) and 7 mg/kg oral dosage (PO)\n(§5) Formulation: 0.1 mg/mL IV and 1 mg/mL PO solution in 10/10/80 DMSO/Tween80/Water\n(§6) Mice Info: Male C57 Bl/6J"}, "[2]": {"test": "Mouse plasma PK after IV administration", "assay_type": "in vivo", "details": "for AUC(0-inf): read-out: AUCINF_obs (converted); for MRT inf: read-out: MRTINF_obs", "experimental": "as §3, §4, §5, §6"}, "[3]": {"details": "mouse plasma, 7 mg/kg PO, Average"}, "[4]": {"details": "mouse plasma, 7 mg/kg PO, individual mice, 7 mg/kg"}, "[5]": {"details": "1 mg/kg IV, individual mice, 1 mg/kg"}, "[6]": {"details": "male, C57 Bl/6J, mouse, plasma, iv, 1 mg/kg, 1 mg/kg IV, Average"}, "[7]": {"details": "male, C57 Bl/6J, mouse, plasma, iv, 1 mg/kg, 1 mg/kg IV, individual mice"}}, "note": "Several values for one entry are separate records, joined by “and”; a condition that tells them apart may be missing. Equal entries are not always repeated. Where two headings read alike, the source gives them in different places.", "data": [{"smiles": "CN(C)C(=O)N1CCC2(CC1)c1ccccc1C(=O)N2Cc1ccc(C(=O)NO)cc1", "note": "[Compound Example 11, 2-(4-(hydroxycarbamoyl)benzyl)-N,N-dimethyl-3-oxospiro[isoindoline-1,4′-piperidine]-1′-carboxamide]", "values": [{"measurement": "IC50", "setting": "Human HDAC9", "result": 3.2, "unit": "µM"}, {"measurement": "IC50", "setting": "Human HDAC7", "result": 0.85, "unit": "µM"}]}, {"smiles": "O=C(NO)c1ccc(CN2C(=O)c3ccccc3C23CCN(C2CC2)CC3)cc1", "note": "[Compound Example 12, 4-((1′-cyclopropyl-3-oxospiro[isoindoline-1,4′-piperidin]-2-yl)methyl)-N-hydroxybenzamide]", "values": [{"measurement": "IC50", "setting": "Human HDAC9", "result": 6.9, "unit": "µM"}, {"measurement": "IC50", "setting": "Human HDAC7", "result": 3.1, "unit": "µM"}]}, {"smiles": "CN1CCC2(CC1)CN(c1ccc(C(=O)Nc3cc(-c4cccs4)ccc3N)cn1)C(=O)O2", "note": "[Example 4, N-(2-amino-5-(thiophen-2-yl)phenyl)-6-(8-methyl-2-oxo-1-oxa-3,8-diazaspiro[4.5]decan-3-yl)nicotinamide]", "values": [{"measurement": "AUC", "setting": "[1]; male, C57 Bl/6J, 7 mg/kg, mouse plasma, oral dosing, read-out: AUC (area under curve)", "result": "~16", "unit": "µM·h"}, {"measurement": "AUC(0-t)", "setting": "[1]; male, C57 Bl/6J, mouse, plasma, po, 7 mg/kg, mouse plasma, 7 mg/kg PO, Average", "result": "7380 ng·h/mL and 15.9 µM·h"}, {"measurement": "AUC(0-inf)", "setting": "[1]; male, C57 Bl/6J, mouse, plasma, po, 7 mg/kg, mouse plasma, 7 mg/kg PO, Average, read-out: AUCINF_obs (converted)", "result": 7860, "unit": "ng·h/mL"}, {"measurement": "Cmax", "setting": "[1]; male, C57 Bl/6J, mouse, plasma, po, 7 mg/kg, mouse plasma, 7 mg/kg PO, Average, read-out: Cmax", "result": "2490 ng/mL and 5.39 µM"}, {"measurement": "half-life", "setting": "[1]; male, C57 Bl/6J, mouse, plasma, po, 7 mg/kg, mouse plasma, 7 mg/kg PO, Average, read-out: T1/2 (converted)", "result": 1.9, "unit": "h"}, {"measurement": "half-life", "setting": "[1]; male, C57 Bl/6J, mouse, plasma, po, 7 mg/kg, mouse plasma, 7 mg/kg PO, individual mice (Mouse-1 to Mouse-3), read-out: T1/2 (converted)", "result": 1.65, "unit": "h"}, {"measurement": "Cmax", "setting": "[1]; male, C57 Bl/6J, mouse, plasma, po, 7 mg/kg, mouse plasma, 7 mg/kg PO, individual mice, read-out: Cmax", "result": "3200 ng/mL and 6.91 µM"}, {"measurement": "half-life", "setting": "[1]; male, C57 Bl/6J, mouse, plasma, po, 7 mg/kg, mouse plasma, oral dosing, read-out: half-life (converted)", "result": 1.9, "unit": "h"}, {"measurement": "bioavailability", "setting": "[1]; male, C57 Bl/6J, plasma, 7 mg/kg, mouse, oral dosing, read-out: bioavailability (% F)", "result": 31, "unit": "%"}, {"measurement": "bioavailability", "setting": "[1]; male, C57 Bl/6J, plasma, mouse, 7 mg/kg PO vs 1 mg/kg IV, Average, read-out: % F", "result": 31, "unit": "%"}, {"measurement": "Tmax", "setting": "[1]; male, C57 Bl/6J, mouse plasma, 7 mg/kg PO, individual mice", "result": 1, "unit": "h"}, {"measurement": "AUC (% Extrap)", "setting": "[1]; [3]", "result": 6.54, "unit": "%"}, {"measurement": "Cl_obs", "setting": "[1]; [3]", "result": 16.34, "unit": "mL/min/kg"}, {"measurement": "T1/2", "setting": "[1]; mouse plasma, 7 mg/kg PO, individual mice (Mouse-1 to Mouse-3), 7 mg/kg", "result": "2.25 h and 1.78 h"}, {"measurement": "AUC (% Extrap)", "setting": "[1]; [4]", "result": "5.20% and 9.47% and 4.97%"}, {"measurement": "AUCINF_obs", "setting": "[1]; [4]", "result": "690882 ng·min/mL and 335315 ng·min/mL and 388640 ng·min/mL"}, {"measurement": "AUClast", "setting": "[1]; [4]", "result": "654948 min*ng/mL and 303573 min*ng/mL and 369340 min*ng/mL and 23.58 μM.hr and 10.93 μM.hr and 13.30 μM.hr"}, {"measurement": "Cl_obs", "setting": "[1]; [4]", "result": "10.13 mL/min/kg and 20.88 mL/min/kg and 18.01 mL/min/kg"}, {"measurement": "Cmax", "setting": "[1]; [4]", "result": "1930 ng/mL and 2350 ng/mL"}, {"measurement": "Cmax", "setting": "[1]; mouse plasma, 7 mg/kg PO, individual mice, 7 mg/kg, read-out: Cmax", "result": "4.17 µM and 5.08 µM"}, {"measurement": "AUC (% Extrap)", "setting": "[2]; 1 mg/kg IV, Average", "result": 1.08, "unit": "%"}, {"measurement": "Cl_obs", "setting": "[2]; 1 mg/kg IV, Average", "result": 4.93, "unit": "mL/min/kg"}, {"measurement": "Vss_obs", "setting": "[2]; 1 mg/kg IV, Average", "result": 0.54, "unit": "L/kg"}, {"measurement": "T1/2", "setting": "[2]; 1 mg/kg IV, individual mice (Mouse-1 to Mouse-3), 1 mg/kg", "result": "1.33 h and 1.28 h"}, {"measurement": "AUC (% Extrap)", "setting": "[2]; [5]", "result": "0.30% and 1.04% and 1.89%"}, {"measurement": "AUC last", "setting": "[2]; [5]", "result": "6.33 µM·h and 7.92 µM·h"}, {"measurement": "AUCINF_obs", "setting": "[2]; [5]", "result": "177722 ng·min/mL and 224191 ng·min/mL"}, {"measurement": "AUClast", "setting": "[2]; [5]", "result": "175879 ng·min/mL and 219951 ng·min/mL"}, {"measurement": "Cl_obs", "setting": "[2]; [5]", "result": "4.70 mL/min/kg and 5.63 mL/min/kg and 4.46 mL/min/kg"}, {"measurement": "Cmax", "setting": "[2]; [5]", "result": "2490 ng/mL and 2040 ng/mL"}, {"measurement": "MRTINF_obs", "setting": "[2]; [5]", "result": "1.74 h and 1.97 h"}, {"measurement": "Vss_obs", "setting": "[2]; [5]", "result": "0.50 L/kg and 0.59 L/kg and 0.53 L/kg"}, {"measurement": "Cmax", "setting": "[2]; 1 mg/kg IV, individual mice, 1 mg/kg, read-out: Cmax", "result": "5.38 µM and 4.41 µM"}, {"measurement": "clearance (in words)", "setting": "[2]; IV administration", "result": "low clearance"}, {"measurement": "volume (in words)", "setting": "[2]; IV administration", "result": "low volume"}, {"measurement": "Tmax", "setting": "[2]; male, C57 Bl/6J, 1 mg/kg IV, individual mice", "result": 4.8, "unit": "min"}, {"measurement": "AUC", "setting": "[2]; male, C57 Bl/6J, 1 mg/kg, IV administration", "result": "~7.3", "unit": "µM·h"}, {"measurement": "AUC(0-t)", "setting": "[2]; [6]", "result": "3380 ng·h/mL and 7.3 µM·h"}, {"measurement": "AUC(0-inf)", "setting": "[2]; [6]", "result": 3420, "unit": "ng·h/mL"}, {"measurement": "Cmax", "setting": "[2]; male, C57 Bl/6J, mouse, plasma, iv, 1 mg/kg, 1 mg/kg IV, Average, read-out: Cmax", "result": "2030 ng/mL and 4.38 µM"}, {"measurement": "MRT inf", "setting": "[2]; [6]", "result": 1.82, "unit": "h"}, {"measurement": "half-life", "setting": "[2]; male, C57 Bl/6J, mouse, plasma, iv, 1 mg/kg, 1 mg/kg IV, Average, read-out: T1/2 (converted)", "result": 1.16, "unit": "h"}, {"measurement": "AUC(0-t)", "setting": "[2]; [7]", "result": "3540 ng·h/mL and 7.64 µM·h"}, {"measurement": "half-life", "setting": "[2]; male, C57 Bl/6J, mouse, plasma, iv, 1 mg/kg, 1 mg/kg IV, individual mice (Mouse-1 to Mouse-3), read-out: T1/2 (converted)", "result": 0.86, "unit": "h"}, {"measurement": "AUC(0-inf)", "setting": "[2]; [7]", "result": 3550, "unit": "ng·h/mL"}, {"measurement": "Cmax", "setting": "[2]; male, C57 Bl/6J, mouse, plasma, iv, 1 mg/kg, 1 mg/kg IV, individual mice, read-out: Cmax", "result": "1560 ng/mL and 3.37 µM"}, {"measurement": "MRT inf", "setting": "[2]; [7]", "result": 1.76, "unit": "h"}, {"measurement": "half-life", "setting": "[2]; male, C57 Bl/6J, mouse, plasma, iv, 1 mg/kg, IV administration, read-out: half-life (T1/2) (converted)", "result": 1.2, "unit": "h"}]}]}
